Patent US20040014729A1, “Use of estramustine phosphate in the treatment of bone metastasis” (priority 2003, published 2004)
“Also recorded” adds a separate entry of the source.

Key:
mouse calvaria = test: Bone resorption assay, organ culture with 45Ca-prelabeled mouse calvaria (PTH-stimulated 45Ca release); assay type: cell-based; details: for bone resorption in vitro (in words): compound present during culture
Experimental: This example used the organ culture technique with mouse calvaria.
The organ culture technique was used with ^45Ca-prelabeled mouse calvaria. The method has been described by Lerner (1987) and Ljunggren et al. (1991). Newborn mice were injected subcutaneously with ^45CaCl (1.5 μCi/animal). After four days their calvaria were dissected, split into quarters and preincubated in phenol red free CMRL 1066 medium supplemented with 0.1% bovine serum albumin and 50 μg/ml gentamicin for 24 hours at 37° C. in a humidified atmosphere of 5% CO2 in air in the presence of indomethacin (1 μmol/l) and 10 nmol/l bovine parathyroid hormone (PTH). After washing the bone pieces, the medium was changed and cultures incubated for three more days in the same medium but without indomethacin in the presence or absence of estramustine phosphate or clodronate. Resorption was measured by assaying the ^45Ca liberated into the medium using a standard technique for liquid scintillation counting. Total ^45Ca was determined after hydrolysing the calvaria in 6 mol/l HCI overnight. Bone resorption was studied in various concentrations of estramustine phosphate and the effect of estramusine phosphate present only during the preincubation stage was checked in order to study its cytotoxcity.
Results are expressed as mean ±SEM, n=5 or 10. Inhibition percentage was calculated as follows [formula]

[1] = Effect of estramustine phosphate and clodronate on their mutual bioavailability (serum AUC0-24h, Cmax, serum estradiol) in patients
Experimental: Twelve male patients aged 62-80 were divided into two groups of six patients.
The first group of six patients were given 3200 mg daily of clodronate only for four days. On the fifth day the AUC0-24 h for the drug was calculated from serum concentrations of repeated blood samples. On the sixth day, 560 mg estramustine phosphate was add per oral to the clodronate treatment for the following four days. On day ten, the AUC0-24 h for both drugs was calculated.
The second group of six patients were give orally 560 mg daily of estramustine phosphate only for four days. On the fifth day the AUC0-24 h for the drug was calculated from serum concentrations of repeated blood samples. On the sixth day, 3200 mg clodronate was added to the estramustine phosphate treatment for the following four days. On day ten, the AUC0-24 h for both drugs was calculated.
The clodronate was provided as 400 mg capsules, and the estramustine phosphate used was estracyt in 140 mg capsules.
The method used in the analysis of the serum estramustine phosphate concentrations measures […] and is insensitive to any metabolites. The estradiol-related metabolites (estramustine and estradiol) were not analyized in connection with the bioanalysis. […] Unfortunately, estradiol was not measured after administration of estramustine phosphate alone.

[2] = present only during preincubation, then washed away, concentration not given

AUC0-24h and Cmax, alone versus concomitantly with the other drug (in words) ([1]; human, in vivo, po) | bioavailability when the other drug is added (in words) ([1]; human, in vivo, po) | AUC0-24h Clodronate ([1]; male, human, in vivo, 3200 mg) | Structure (SMILES) | resorption, compound present only during preincubation (in words) (mouse calvaria; [2]) | resorption, compound present only during preincubation (in words) (mouse calvaria; 10 μmol/l) | resorption, compound present only during preincubation (in words) (mouse calvaria; 100 μmol/l) | observation in culture medium (mouse calvaria; Experiment 1, 1000 μmol/l) | bone resorption in vitro (in words) (mouse calvaria) | bone resorption in vitro (in words) (mouse calvaria; listed as estramustine phosphate sodium) | AUC0-24h and Cmax, alone versus concomitantly with the other drug (in words) ([1]; patients, oral) | bioavailability when the other drug is added (in words) ([1]; patients, oral)
did not differ significantly | no effect | 19300 ng·h/mL | O=P(O)(O)C(Cl)(Cl)P(=O)(O)O [Clodronate, Disodium clodronate] | also inhibits resorption |  |  |  |  |  |  | 
 |  |  | C[C@]12CC[C@@H]3c4ccc(OC(=O)N(CCCl)CCCl)cc4CC[C@H]3[C@@H]1CC[C@@H]2OP(=O)([O-])[O-].[Na+].[Na+] [Estramustine phosphate, Estramustine phosphate sodium] | PTH could not stimulate | slightly increased | strongly inhibited | (precipitate) | inhibited bone resorption in this in vitro model concentration-dependently and about as effectively as clodronate | dose-dependently inhibited; also recorded: inhibits bone resorption in vitro | differed statistically | almost doubled
